Reference: PubChem BioAssay AID1963978 (Molecular Pharmacology Branch, DTP, NCI, 2024)

Tested on: 616215-338-R-J1-PDC spheroids with HUVEC/MSC, viability
Test: Anticancer human tumor 616215-338-R-J1-PDC patient-derived colon adenocarcinoma cell line growth inhibition [PI3K]
Conditions: for IC50: curve of first compound; for viability, T/C: stronger effect = lower value
How it was run: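 Agents were dosed from a top concentration near clinical Cmax (otherwise 10 microM) in half-log decrements, alone or combined with PI3K inhibitors. The spheroids contain tumor cells plus endothelial (HUVEC) and MSC stroma; viability is measured.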

[1] = second compound 0.0316 µM, first compound 0.0316 µM
[2] = second compound 0.0316 µM, first compound 0.1 µM
[3] = second compound 0.0316 µM, first compound 0.316 µM
[4] = second compound 0.0316 µM, first compound 1 µM
[5] = second compound 0.0316 µM, first compound 3.16 µM
[6] = second compound 0.0316 µM, first compound 10 µM
[7] = second compound 0.1 µM, first compound 0.0316 µM
[8] = second compound 0.1 µM, first compound 0.1 µM
[9] = second compound 0.1 µM, first compound 0.316 µM
[10] = second compound 0.1 µM, first compound 1 µM
[11] = second compound 0.1 µM, first compound 3.16 µM
[12] = second compound 0.1 µM, first compound 10 µM
[13] = second compound 0.316 µM, first compound 0.0316 µM
[14] = second compound 0.316 µM, first compound 0.1 µM
[15] = second compound 0.316 µM, first compound 0.316 µM
[16] = second compound 0.316 µM, first compound 1 µM
[17] = second compound 0.316 µM, first compound 3.16 µM
[18] = second compound 0.316 µM, first compound 10 µM
[19] = second compound 1 µM, first compound 0.0316 µM
[20] = second compound 1 µM, first compound 0.1 µM
[21] = second compound 1 µM, first compound 0.316 µM
[22] = second compound 1 µM, first compound 1 µM
[23] = second compound 1 µM, first compound 3.16 µM
[24] = second compound 1 µM, first compound 10 µM
[25] = second compound 3.16 µM, first compound 0.0316 µM
[26] = second compound 3.16 µM, first compound 0.1 µM
[27] = second compound 3.16 µM, first compound 0.316 µM
[28] = second compound 3.16 µM, first compound 1 µM
[29] = second compound 3.16 µM, first compound 3.16 µM
[30] = second compound 3.16 µM, first compound 10 µM
[31] = second compound 10 µM, first compound 0.0316 µM
[32] = second compound 10 µM, first compound 0.1 µM
[33] = second compound 10 µM, first compound 0.316 µM
[34] = second compound 10 µM, first compound 1 µM
[35] = second compound 10 µM, first compound 3.16 µM
[36] = second compound 10 µM, first compound 10 µM
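Further: spheroids exposed to agents for seven days before the viability read.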

Compound `C#Cc1c(F)ccc2cc(O)cc(-c3ncc4c(N5CC6CCC(C5)N6)nc(OCC56CCCN5CC(F)C6)nc4c3F)c12` (centres undefined) + CC(Nc1ncnc2nc[nH]c12)c1cc2cccc(Cl)c2c(=O)n1-c1ccccc1 has an IC50 (second compound 0.0316 µM) of over 10 µM, an IC50 (second compound 0.1 µM) of over 10 µM and an IC50 (second compound 0.316 µM) of over 10 µM. It also gave an IC50 (second compound 1 µM) of over 10 µM, an IC50 (second compound 3.16 µM) of over 10 µM and an IC50 (second compound 10 µM) of over 10 µM. It also gave a viability, T/C [1] of 99.5%, a viability, T/C [2] of 93.7% and a viability, T/C [3] of 102%. It also gave a viability, T/C [4] of 109%, a viability, T/C [5] of 109% and a viability, T/C [6] of 73.3%. The viability, T/C [7] was 102%, the viability, T/C [8] was 110% and the viability, T/C [9] was 98.5%. The viability, T/C [10] was 99.8%, the viability, T/C [11] was 102% and the viability, T/C [12] was 81.3%. It also gave a viability, T/C [13] of 111%, a viability, T/C [14] of 97.7% and a viability, T/C [15] of 98.2%. It also gave a viability, T/C [16] of 99.8%, a viability, T/C [17] of 104% and a viability, T/C [18] of 68.2%. For the same compound, the viability, T/C [19] was 100%, the viability, T/C [20] was 110% and the viability, T/C [21] was 108%. The viability, T/C [22] was 104%, the viability, T/C [23] was 122% and the viability, T/C [24] was 74.7%. For the same compound, the viability, T/C [25] was 111%, the viability, T/C [26] was 97.7% and the viability, T/C [27] was 103%. For the same compound, the viability, T/C [28] was 107%, the viability, T/C [29] was 98.4% and the viability, T/C [30] was 58.4%. For the same compound, the viability, T/C [31] was 104%, the viability, T/C [32] was 108% and the viability, T/C [33] was 109%. The viability, T/C [34] was 105%, the viability, T/C [35] was 95% and the viability, T/C [36] was 62.5%.
With `C=CC(=O)N1CCN(c2nc(=O)n(-c3c(C)ccnc3C(C)C)c3nc(-c4c(O)cccc4F)c(F)cc23)C(C)C1` (centres undefined) + CC(Nc1ncnc2nc[nH]c12)c1cc2cccc(Cl)c2c(=O)n1-c1ccccc1 the IC50 (second compound 0.0316 µM) was over 10 µM, the IC50 (second compound 0.1 µM) was over 10 µM and the IC50 (second compound 0.316 µM) was over 10 µM. The IC50 (second compound 1 µM) was over 10 µM, the IC50 (second compound 3.16 µM) was over 10 µM and the IC50 (second compound 10 µM) was over 10 µM. The viability, T/C [1] was 89%, the viability, T/C [2] was 92.5% and the viability, T/C [3] was 109%. It also gave a viability, T/C [4] of 104%, a viability, T/C [5] of 93.3% and a viability, T/C [6] of 95.8%. It also gave a viability, T/C [7] of 100%, a viability, T/C [8] of 99.3% and a viability, T/C [9] of 98%. The viability, T/C [10] was 93.4%, the viability, T/C [11] was 96.8% and the viability, T/C [12] was 89.1%. For the same compound, the viability, T/C [13] was 99.7%, the viability, T/C [14] was 107% and the viability, T/C [15] was 92.8%. For the same compound, the viability, T/C [16] was 96.5%, the viability, T/C [17] was 91.4% and the viability, T/C [18] was 74.7%. For the same compound, the viability, T/C [19] was 101%, the viability, T/C [20] was 99.5% and the viability, T/C [21] was 106%. The viability, T/C [22] was 96.9%, the viability, T/C [23] was 94% and the viability, T/C [24] was 88.5%. For the same compound, the viability, T/C [25] was 101%, the viability, T/C [26] was 104% and the viability, T/C [27] was 98%. It also gave a viability, T/C [28] of 105%, a viability, T/C [29] of 85.4% and a viability, T/C [30] of 78.8%. For the same compound, the viability, T/C [31] was 106%, the viability, T/C [32] was 107% and the viability, T/C [33] was 108%. For the same compound, the viability, T/C [34] was 95.5%, the viability, T/C [35] was 99% and the viability, T/C [36] was 82.6%.
